The values below come from US8415321B2, “Nucleoside derivatives for treatment of Caliciviridae infections, including Norovirus infections” (priority 2008, dated 2013).

This assay has as its system Norwalk GI.1 replicon. Put plainly: Norwalk GI.1 replicon assay (in vitro anti-viral activity). The class given is cell-based. As to conditions: Norovirus. An excerpt:
The Norwalk GI.1 strain (Chang, K. O., et al. (2006) Virology 353:463-473), the GII-4 strain replicon, as well other Norovirus replicons can be used in assays to determine the in vitro antiviral activity of the compounds described herein, or other compounds or compound libraries. In some embodiments, the replicon systems are subgenomic and therefore allow evaluation of small molecule inhibitors of non-structural proteins. This can provide the same benefits to Norovirus drug discovery that Hepatitis C replicons contributed to the discovery of therapeutics useful for treatment of that virus (Stuyver, L. J., et al. (2006) Antimicrob. Agents Chemother. 47:244-254).

Each structure is given as a SMILES string.

As for `CC1(O)C(O)[C@@H](CO)O[C@H]1n1ccc(N)nc1=O` (some centres unmarked) [2′-C-methyl-cytosine], the 50% effective concentration (EC50) is 2.1 µM and the EC90 was found to be 8.9 µM.

One may read the EC50 as the concentration giving half of the maximal effect. Read a low EC50 as higher potency in that assay. Broadly, the EC90 is the concentration at which the effect reaches the 90% level.
